The source of these data is patent US12128028B2, “Heterocyclic sulfonamide derivatives and pharmaceutical uses thereof” (METRION BIOSCIENCES LIMITED, priority 2018, dated 2024).

Structures are written as SMILES.

The target of the test is human Kv1.3 (Homo sapiens (Human), UniProt P22001). The experiment in a line: Kv1.3 potency evaluation, automated patch clamp electrophysiology (QPatch HT) in CHO-Kv1.3 cells. In kind it is cell-based. As to conditions: whole-cell QPatch HT, % inhibition of charge, step to +30 mV, four concentrations, N≥3 cells, read-out: hKv1.3 IC50. The source says:
Biological Assays Kv1.3 Potency Evaluation Electrophysiology Recordings
A proprietary Chinese hamster ovary cell line stably expressing exogenous human a-subunits of Kv1.3 (CHO-Kv1.3) channel, validated biophysically and pharmacologically in house, was used to assess the ability of test compounds to block Kv1.3 currents using automated patch clamp electrophysiology. The QPatch HT system (Sophion Bioscience A/S, Denmark) was used with the conventional whole-cell configuration. This system is an automated, chip-based planar patch clamp device allowing for up to 48 parallel independent experiments in one experimental assay run. Cells are added to each well and drawn by suction onto a small aperture to obtain a Gigaohm seal between the cell membrane and treated silicon surface, and whole-cell recordings initiated after access is achieved by suction and/or voltage pulses. The QPatch HT uses static perfusion, whereby a small volume of recording solution or drug is added to a reservoir on the chip and the solution perfuses across the cell through quartz-lined microfluidic channels; this solution is removed by capillary action when the next sample application is made.
CHO-Kv1.3 cells were prepared for experiments by dissociation from T175 cell culture flasks using trypsin-EDTA (0.05%), cells were kept in serum free media in the cell hotel on board the QPatch HT. These cells were sampled, washed and re-suspended in extracellular recording solution by the QPatch HT immediately before application to the recording well site on the chip. Experiments were performed using the following solutions; extracellular solution contained (in mM); 150 NaCl, 10 KCl, 1 MgCl2, 3 CaCl2), 10 Glucose and 10 HEPES (pH 7.4, NaOH) and intracellular solution contained (in mM); 20 KCl, 120 KF, 10 HEPES, 10 EGTA, 5 ATP (pH 7.2, KOH).
The potency (Inhibitory Concentration 50%, IC50) of synthesized compounds against Kv1.3 was determined from concentration-response relationships established by cumulatively applying four escalating concentrations of test compound to an individual cell and a minimum of N≥3 individual cells of data per compound were used to generate the IC50 value.
On achieving the whole-cell configuration; two additions of vehicle (0.1-0.3% DMSO v/v) were applied to each cell in two bolus additions with a two minute recording period between each addition (four minutes total recording time). Following the vehicle period, four concentrations of test sample were applied as two bolus additions per test concentration at two minute intervals, and the effects on current measured during the four minute recording period.
Currents were elicited using a single step voltage protocol. From a holding potential of −80 mV the cell is depolarised to +30 mV (500 ms) resulting in an outward current before finally repolarising the cell by returning to the holding potential. The command voltage was applied at a frequency of 0.067 Hz throughout the duration of the experiment. For each sweep of the voltage protocol membrane current and the passive properties of the individual cells were recorded by QPatch assay software (version 5.2). Cursors were placed to calculate the charge (integral of the current recorded during cursor interval) between 2-490 ms (0.4-99%) of the 500 ms step to +30 mV.
The % inhibition of charge for each test concentration application period was calculated as the reduction in mean charge at the end of each concentration test period relative to the charge value measured at the end of the control (i.e. vehicle) period. Sigmoidal concentration response curves (four parameter logistic curve) were fitted to the % inhibition rom which the IC50 was determined. Curve fits were constrained at 0 and 100%.

human Kv1.3, sequence (P22001 whole entry): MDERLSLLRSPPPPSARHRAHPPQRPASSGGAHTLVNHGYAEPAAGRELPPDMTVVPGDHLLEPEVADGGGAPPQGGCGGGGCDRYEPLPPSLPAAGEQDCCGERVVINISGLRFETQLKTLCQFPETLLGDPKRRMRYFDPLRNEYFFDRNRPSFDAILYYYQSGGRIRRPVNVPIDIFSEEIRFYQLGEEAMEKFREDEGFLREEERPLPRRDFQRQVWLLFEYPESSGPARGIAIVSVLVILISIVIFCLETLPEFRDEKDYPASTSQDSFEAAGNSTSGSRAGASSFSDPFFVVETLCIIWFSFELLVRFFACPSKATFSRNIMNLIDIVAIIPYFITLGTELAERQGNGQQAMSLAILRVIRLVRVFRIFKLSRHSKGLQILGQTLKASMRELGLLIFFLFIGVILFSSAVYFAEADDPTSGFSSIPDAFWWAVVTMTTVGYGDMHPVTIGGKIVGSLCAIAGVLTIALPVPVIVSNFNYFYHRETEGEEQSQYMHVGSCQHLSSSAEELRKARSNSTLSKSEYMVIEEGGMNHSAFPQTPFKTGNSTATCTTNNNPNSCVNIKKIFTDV

With `CC(C)NC(=O)[C@@]1(C)CN=C(C23CC(N(Cc4ccc(C(F)(F)F)cc4)S(=O)(=O)c4ccccc4)(C2)C3)N1` (mixture of isomers) [Example 254], the IC50 turned out to be 333 nM.
Turning to `CC1(C)N=C(C23CC(N(Cc4ccc(Cl)c(F)c4)S(=O)(=O)c4ccccc4)(C2)C3)N[C@H]1C(=O)N1CC(C(F)(F)F)C1` (mixture of isomers) [Example 172], the IC50 was 103 nM.
The figure for `CC1(C)N=C(C23CC(N(Cc4ccc(Cl)c(F)c4)S(=O)(=O)c4ccccc4)(C2)C3)N[C@H]1C(=O)NCC1(F)CCC1` (mixture of isomers) [Example 36] is 45 nM; for `CC1(C)N=C(C23CC(N(Cc4ccc(Cl)c(Cl)c4)S(=O)(=O)c4ccccc4)(C2)C3)N[C@H]1C(=O)NCC1CC(F)(F)C1` (mixture of isomers) [Example 47] it is 47 nM.
With `CC1(C)N=C(C23CC(N(Cc4ccc(Cl)cc4)S(=O)(=O)c4ccccc4O)(C2)C3)N[C@H]1C(=O)NCCC(F)(F)F` (mixture of isomers) [Example 180], the IC50 was 106 nM.
The figure for `Cn1ccc(S(=O)(=O)N(Cc2ccc(Cl)cc2)C23CC(C4=NC(C)(C)[C@H](C(=O)NCCC(F)(F)F)N4)(C2)C3)n1` (mixture of isomers) [Example 241] is 243 nM.
The figure for `CC1(C)N=C(C23CC(N(Cc4ccc(C(F)(F)F)cc4)S(=O)(=O)c4ccccc4)(C2)C3)N[C@H]1C(=O)NCCC(F)(F)F` (mixture of isomers) [Example 138] is 84 nM; for `CN(CCC(F)(F)F)C(=O)[C@@H]1NC(C23CC(N(Cc4ccc(Cl)c(Cl)c4)S(=O)(=O)c4ccccc4)(C2)C3)=NC1(C)C` (mixture of isomers) [Example 147] it is 88 nM.
The figure for `CC1(C)N=C(C23CC(N(Cc4ccc(Cl)cc4)S(=O)(=O)c4ccccc4)(C2)C3)N[C@H]1C(=O)NCC(C)(C)C(F)(F)F` (mixture of isomers) [Example 49] is 48 nM; for `CC1(C)N=C(C23CC(N(Cc4ccc(Cl)c(F)c4)S(=O)(=O)c4ccccc4)(C2)C3)N[C@H]1C(=O)NCCC(F)F` (mixture of isomers) [Example 79] it is 60 nM; for `C[C@@H]1CC(F)(F)CN1C(=O)[C@@H]1NC(C23CC(N(Cc4ccc(Cl)c(F)c4)S(=O)(=O)c4ccccc4)(C2)C3)=NC1(C)C` (mixture of isomers) [Example 27] it is 40 nM.
Regarding `CC1(C)N=C(C23CC(N(Cc4ccc(Cl)cc4)S(=O)(=O)c4cccc(C(F)(F)F)c4)(C2)C3)N[C@H]1C(=O)NCCC(F)(F)F` (mixture of isomers) [Example 152], the IC50 is 91 nM.
The figure for `CC1(C)N=C(C23CC(N(Cc4ccc(Cl)c(F)c4)S(=O)(=O)c4ccccc4)(C2)C3)N[C@H]1C(=O)N1CC2(CCC2(F)F)C1` (mixture of isomers) [Example 249] is 280 nM; for `CC1(C)N=C(C23CC(N(Cc4cc(F)c(Cl)c(F)c4)S(=O)(=O)c4ccccc4)(C2)C3)N[C@H]1C(=O)NCCC(F)(F)F` (mixture of isomers) [Example 155] it is 92 nM; for `CN(C)C(=O)[C@@]1(C)CN=C(C23CC(N(Cc4ccc(C(F)(F)F)cc4)S(=O)(=O)c4ccc(F)cc4)(C2)C3)N1` (mixture of isomers) [Example 269] it is 481 nM.
On to `CN(CC(F)(F)C(F)(F)F)C(=O)[C@@H]1NC(C23CC(N(Cc4ccc(Cl)c(F)c4)S(=O)(=O)c4ccccc4)(C2)C3)=NC1(C)C` (mixture of isomers) [Example 181], for which the IC50 is 106 nM.
To `CC1(C)N=C(C23CC(N(Cc4ccc(Cl)cc4)S(=O)(=O)CC4CC(F)(F)C4)(C2)C3)N[C@H]1C(=O)NCCC(F)(F)F` (mixture of isomers) [Example 231] belongs 205 nM.
Take `C[C@@]1(C(=O)NCC2CCCCC2)CN=C(C23CC(N(Cc4ccc(C(F)(F)F)cc4)S(=O)(=O)c4ccc(F)cc4)(C2)C3)N1` (mixture of isomers) [Example 285]: the IC50 came out at 802 nM.
To `CC1(C)N=C(C23CC(N(Cc4ccc(Cl)c(F)c4)S(=O)(=O)c4ccccc4)(C2)C3)N[C@H]1C(=O)NCC(O)C(F)(F)F` (mixture of isomers) [Example 233] belongs 209 nM; to `CC(F)(F)CCS(=O)(=O)N(Cc1ccc(Cl)c(Cl)c1)C12CC(C3=NC(C)(C)[C@H](C(=O)NCC(F)(F)C(F)(F)F)N3)(C1)C2` (mixture of isomers) [Example 156], 92 nM; to `O=C(NCC1CCC1)C1NC(C23CC(N(Cc4ccc(C(F)(F)F)cc4)S(=O)(=O)c4ccc(F)cc4)(C2)C3)=NC12CC2` (stereo not drawn) [Example 239], 230 nM.
The figure for `CC1(C)N=C(C23CC(N(Cc4ccc(Cl)c(Cl)c4)S(=O)(=O)c4ccccc4)(C2)C3)N[C@H]1C(=O)NC1CC(F)(F)C1` (mixture of isomers) [Example 115] is 73 nM.
The figure for `CC1(C)CC(NC(=O)[C@@]2(C)CN=C(C34CC(N(Cc5ccc(C(F)(F)F)cc5)S(=O)(=O)c5ccc(F)cc5)(C3)C4)N2)C1` (mixture of isomers) [Example 280] is 615 nM.
`CN(CC(F)(F)C(F)(F)F)C(=O)[C@@H]1NC(C23CC(N(Cc4ccc(Cl)c(Cl)c4)S(=O)(=O)c4ccccc4)(C2)C3)=NC1(C)C` (mixture of isomers) [Example 215]: the IC50 is 159 nM.
`CC1N=C(C23CC(N(Cc4ccc(C(F)(F)F)cc4)S(=O)(=O)c4ccc(F)cc4)(C2)C3)N[C@@]1(C)C(=O)NCCC(F)(F)F` (mixture of isomers) [Example 211]: the IC50 is 148 nM.
The figure for `C[C@@]1(C(=O)NCC2CCC2)CN=C(C23CC(N(Cc4ccc(C(F)(F)F)cc4)S(=O)(=O)c4ccc(F)cc4)(C2)C3)N1` (mixture of isomers) [Example 247] is 262 nM; for `CC1(C)N=C(C23CC(N(Cc4ccc(C(F)(F)F)cc4)S(=O)(=O)c4ccc(F)cc4)(C2)C3)NC1C(=O)N1CCCCC1` (stereo not drawn) [Example 157] it is 94 nM; for `CC1(C)N=C(C23CC(N(Cc4ccc(Cl)c(F)c4)S(=O)(=O)c4ccccc4)(C2)C3)N[C@H]1C(=O)N1CC(F)(F)C(F)(F)C1` (mixture of isomers) [Example 61] it is 51 nM.
To `CC1(C)N=C(C23CC(N(Cc4ccc(Cl)c(F)c4)S(=O)(=O)c4ccccc4)(C2)C3)N[C@H]1C(=O)NCCCC(F)(F)F` (mixture of isomers) [Example 108] belongs 71 nM; to `CC1(C)N=C(C23CC(N(Cc4ccc(Cl)c(Cl)c4)S(=O)(=O)CCCF)(C2)C3)N[C@H]1C(=O)NCC(F)(F)C(F)(F)F` (mixture of isomers) [Example 142], 84 nM.
Regarding `CC1(C)N=C(C23CC(N(Cc4ccc(C(F)(F)F)cc4)S(=O)(=O)c4ccc(F)cc4)(C2)C3)N[C@H]1C(=O)NCC1(F)CCC1` [Example 145], the IC50 came to 88 nM.
The figure for `CC1(C)N=C(C23CC(N(Cc4ccc(Cl)c(F)c4)S(=O)(=O)c4ccccc4)(C2)C3)N[C@H]1C(=O)N1CCC(F)CC1` (mixture of isomers) [Example 124] is 75 nM; for `CC1(C)N=C(C23CC(N(Cc4ccc(C(F)(F)F)c(F)c4)S(=O)(=O)c4ccccc4)(C2)C3)N[C@H]1C(=O)NCCC(F)(F)F` (mixture of isomers) [Example 197] it is 126 nM.
To `CC1(C)N=C(C23CC(N(Cc4ccc(Cl)c(F)c4)S(=O)(=O)c4ccccc4)(C2)C3)N[C@@H]1C(=O)NCC1CC(F)(F)C1` (mixture of isomers) [Example 135] belongs 81 nM; to `C[C@@H]1CCN(C(=O)[C@@H]2NC(C34CC(N(Cc5ccc(Cl)c(F)c5)S(=O)(=O)c5ccccc5)(C3)C4)=NC2(C)C)C1` (mixture of isomers) [Example 64], 52 nM.
For `CC(C)(CC(F)(F)F)NC(=O)[C@@H]1NC(C23CC(N(Cc4ccc(Cl)c(F)c4)S(=O)(=O)c4ccccc4)(C2)C3)=NC1(C)C` (mixture of isomers) [Example 141], the IC50 was determined as 84 nM.
